Test results from patent publication US20230399312A1, “SUBSTITUTED PYRIMIDINES AND METHODS OF USE” (THERAVANCE BIOPHARMA R&D IP, LLC, priority 2020, published 2023).

Assays:
[1] = target: T1, recombinant human ALK5 (TGF-βR1) protein (Homo sapiens, UniProt P36897); assay: Biochemical ALK5 (TGF-βR1) assay to measure pKi (LANCE Ultra ULight kinase assay); details: apparent pKi, converted from pIC50 by Cheng-Prusoff
T1 construct: purchased Life Technologies PR9075A
T1 sequence (P36897 34-503): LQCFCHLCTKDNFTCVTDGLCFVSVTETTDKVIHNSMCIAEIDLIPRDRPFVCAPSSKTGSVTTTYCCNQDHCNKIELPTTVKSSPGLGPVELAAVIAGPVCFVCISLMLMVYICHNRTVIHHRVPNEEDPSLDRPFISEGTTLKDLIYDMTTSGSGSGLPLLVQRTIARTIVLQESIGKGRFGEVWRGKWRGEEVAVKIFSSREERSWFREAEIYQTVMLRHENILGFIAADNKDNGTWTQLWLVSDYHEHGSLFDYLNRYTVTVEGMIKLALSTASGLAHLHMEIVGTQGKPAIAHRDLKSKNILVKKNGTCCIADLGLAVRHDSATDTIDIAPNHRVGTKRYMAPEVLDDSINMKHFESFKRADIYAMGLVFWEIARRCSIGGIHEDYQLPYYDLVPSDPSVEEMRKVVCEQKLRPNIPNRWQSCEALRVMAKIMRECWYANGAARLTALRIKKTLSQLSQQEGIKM
Summary of the method: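 Enzyme was preincubated with compound for 60 min at room temperature, then ATP (added from a 125 μM 5× stock with 2 mM DTT) started a 60 min reaction at 37 °C. EDTA plus Eu-anti-phospho-Topo2α (Thr1342) antibody stopped it; TR-FRET pIC50 values were converted to pKi by Cheng-Prusoff.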

[2] = test system: TGF-β-stimulated SMAD3 phosphorylation in BEAS-2B cells; assay: Cellular ALK5 potency assay, inhibition of TGF-β stimulated pSMAD3 formation in BEAS-2B cells; assay type: cell-based; details: Homo sapiens, pSMAD3, TGF-β 10 ng/mL, read-out: BEAS2B pIC50 (converted)
Summary of the method: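 Human lung epithelial BEAS-2B cells were preincubated 1 h at 37 °C with compound in HBSS/HEPES/1% BSA, then stimulated 30 min with 10 ng/mL TGF-β. pSMAD3 in lysates was quantified by AlphaLISA relative to untreated stimulated cells; reported as pIC50.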

| Ki [1] | Compound | IC50 [2] |
| --- | --- | --- |
| 0.0398 to 0.316 nM | Cc1cccc(-c2nccc(Nc3ccnc(Nc4ccc(CN5C[C@H](C)NC[C@@H]5C)cc4)n3)n2)n1 [Compound 453, N2-[4-[[(2S,5S)-2,5-dimethylpiperazin-1-yl]methyl]phenyl]-N4-[2-(6-methyl-2-pyridyl)pyrimidin-4-yl]pyrimidine-2,4-diamine] | 25.1 to 158 nM |
| 0.0398 to 0.316 nM | Cc1cccc(-c2nccc(Nc3ccnc(Nc4ccc(C(=O)N5CCN(C)CC5)cc4)n3)n2)n1 [Compound 434, (4-methylpiperazin-1-yl)-[4-[[4-[[2-(6-methyl-2-pyridyl)pyrimidin-4-yl]amino]pyrimidin-2-yl]amino]phenyl]methanone] | 25.1 to 158 nM |
| 0.398 to 3.16 nM | Cc1cccc(-c2nccc(Nc3ccnc(Nc4ccc(Cl)c(CN5CCSCC5)c4)n3)n2)n1 [Compound 350, N2-[4-chloro-3-(thiomorpholinomethyl)phenyl]-N4-[2-(6-methyl-2-pyridyl)pyrimidin-4-yl]pyrimidine-2,4-diamine] | 25.1 to 158 nM |
| 0.0398 to 0.316 nM | Cc1cccc(-c2nccc(Nc3ccnc(Nc4ccc(C(=O)O[C@@H]5CCNC5)nc4)n3)n2)n1 [Compound 546, [(3R)-pyrrolidin-3-yl] 5-[[4-[[2-(6-methyl-2-pyridyl)pyrimidin-4-yl]amino]pyrimidin-2-yl]amino]pyridine-2-carboxylate] | 25.1 to 158 nM |
| 0.0398 to 0.316 nM | Cc1cccc(-c2nccc(Nc3ccnc(Nc4ccc(C(=O)O[C@@H]5CC[C@@H](C)NC5)nc4)n3)n2)n1 [Compound 567, [(3R,6R)-6-methyl-3-piperidyl] 5-[[4-[[2-(6-methyl-2-pyridyl)pyrimidin-4-yl]amino]pyrimidin-2-yl]amino]pyridine-2-carboxylate] | 25.1 to 158 nM |
| ≤ 0.0316 nM | Cc1cccc(-c2nccc(Nc3ccnc(Nc4ccc5c(c4)CCN(C(C)C)CC5)n3)n2)n1 [Compound 223, N2-(3-isopropyl-2,3,4,5-tetrahydro-1H-benzo[d]azepin-7-yl)-N4-(2-(6-methylpyridin-2-yl)pyrimidin-4-yl)pyrimidine-2,4-diamine] | 25.1 to 158 nM |
| 3.98 to 31.6 nM | Cc1cccc(-c2nccc(Nc3ccnc(Nc4ncc(N5C[C@@H](C)N[C@@H](C)C5)s4)n3)n2)n1 [Compound 604, N2-[5-[(3R,5S)-3,5-dimethylpiperazin-1-yl]thiazol-2-yl]-N4-[2-(6-methyl-2-pyridyl)pyrimidin-4-yl]pyrimidine-2,4-diamine] | 200 to 1260 nM |
| 0.0398 to 0.316 nM | Fc1ccc(Cl)cc1-c1ncc(C2CC2)c(Nc2ccnc(Nc3ccc(N4CCNCC4)cc3)n2)n1 [Compound 1013, N4-[2-(5-chloro-2-fluoro-phenyl)-5-cyclopropyl-pyrimidin-4-yl]-N2-(4-piperazin-1-ylphenyl)pyrimidine-2,4-diamine] | 200 to 1260 nM |
| 0.0398 to 0.316 nM | COC(=O)c1ccc(Nc2nccc(Nc3nc(-c4cccc(C)n4)nn4cccc34)n2)cn1 [Compound 1024, methyl 5-[[4-[[2-(6-methyl-2-pyridyl)pyrrolo[2,1-f][1,2,4]triazin-4-yl]amino]pyrimidin-2-yl]amino]pyridine-2-carboxylate] | 25.1 to 158 nM |
| 0.398 to 3.16 nM | Cc1ccc(O)cc1-c1nccc(Nc2ccnc(Nc3ccc(N4CCC(N(C)C)CC4)cc3)n2)n1 [Compound 16, 3-[4-[[2-[4-[4-(dimethylamino)-1-piperidyl]anilino]pyrimidin-4-yl]amino]pyrimidin-2-yl]-4-methyl-phenol] | 25.1 to 158 nM |
| 0.0398 to 0.316 nM | Cc1cccc(-c2nccc(Nc3ccnc(Nc4ccc(CN5CCC(C(=O)OC6CNC6)CC5)cc4)n3)n2)n1 [Compound 17, azetidin-3-yl 1-[[4-[[4-[[2-(6-methyl-2-pyridyl)pyrimidin-4-yl]amino]pyrimidin-2-yl]amino]phenyl]methyl] piperidine-4-carboxylate] | 25.1 to 158 nM |
| 0.398 to 3.16 nM | COC(=O)C1CN(Cc2ccc(Nc3nccc(Nc4ccnc(-c5cccc(C)n5)n4)n3)cc2)CCN1C(C)C (stereo not shown) [Compound 481, methyl 1-isopropyl-4-[[4-[[4-[[2-(6-methyl-2-pyridyl)pyrimidin-4-yl]amino]pyrimidin-2-yl]amino]phenyl]methyl] piperazine-2-carboxylate] | 25.1 to 158 nM |
| 0.398 to 3.16 nM | Cc1cccc(-c2nccc(Nc3ccnc(Nc4ccc(NS(=O)(=O)CCN)cc4)n3)n2)n1 [Compound 363, 2-amino-N-[4-[[4-[[2-(6-methyl-2-pyridyl)pyrimidin-4-yl]amino]pyrimidin-2-yl]amino]phenyl] ethanesulfonamide] | 200 to 1260 nM |
| ≤ 0.0316 nM | Cc1cccc(-c2nccc(Nc3ccnc(Nc4csc(NC(=O)C5CCNC5)c4)n3)n2)n1 (stereo not shown) [Compound 364, N-[4-[[4-[[2-(6-methyl-2-pyridyl)pyrimidin-4-yl]amino]pyrimidin-2-yl]amino]-2-thienyl]pyrrolidine-3-carboxamide] | ≤ 20 nM |
| 3.98 to 31.6 nM | Cc1cccc(-c2nccc(Nc3ccnc(Nc4ccc5c(c4)OCCO5)n3)n2)n1 [Compound 526, N2-(2,3-dihydro-1,4-benzodioxin-6-yl)-N4-[2-(6-methyl-2-pyridyl)pyrimidin-4-yl]pyrimidine-2,4-diamine] | 25.1 to 158 nM |
| 0.0398 to 0.316 nM | Cc1cccc(-c2nccc(Nc3ccnc(Nc4ccc(NS(=O)(=O)C5CCNCC5)cc4)n3)n2)n1 [Compound 229, N-[4-[[4-[[2-(6-methyl-2-pyridyl)pyrimidin-4-yl]amino]pyrimidin-2-yl]amino]phenyl]piperidine-4-sulfonamide] | 25.1 to 158 nM |
| 0.0398 to 0.316 nM | Cc1cccc(-c2nccc(Nc3ccnc(Nc4ccc(C(=O)OC[C@@H]5CCCN5)nc4)n3)n2)n1 [Compound 612, [(2S)-pyrrolidin-2-yl]methyl 5-[[4-[[2-(6-methyl-2-pyridyl)pyrimidin-4-yl]amino]pyrimidin-2-yl]amino]pyridine-2-carboxylate] | 25.1 to 158 nM |
| 0.0398 to 0.316 nM | Cc1cccc(-c2nccc(Nc3ccnc(Nc4ccc(N5CC6(CNC6)C5)cc4)n3)n2)n1 [Compound 15, N2-[4-(2,6-diazaspiro[3.3]heptan-2-yl)phenyl]-N4-[2-(6-methyl-2-pyridyl)pyrimidin-4-yl]pyrimidine-2,4-diamine] | 25.1 to 158 nM |
| 0.0398 to 0.316 nM | Cc1cccc(-c2nccc(Nc3ccnc(Nc4ccc(C(=O)OC5CNC5)s4)n3)n2)n1 [Compound 258, azetidin-3-yl 5-[[4-[[2-(6-methyl-2-pyridyl)pyrimidin-4-yl]amino]pyrimidin-2-yl]amino]thiophene-2-carboxylate] | 25.1 to 158 nM |
| ≤ 0.0316 nM | Cc1cccc(-c2nccc(Nc3ccnc(Nc4ccc(CN5CCCC(C(=O)OC6CCN(C)C6)C5)cc4)n3)n2)n1 (stereo not shown) [Compound 29, (1-methylpyrrolidin-3-yl) 1-[[4-[[4-[[2-(6-methyl-2-pyridyl)pyrimidin-4-yl]amino]pyrimidin-2-yl]amino]phenyl]methyl] piperidine-3-carboxylate] | ≤ 20 nM |
| 0.0398 to 0.316 nM | Cc1cccc(-c2nccc(Nc3ccnc(Nc4ccc(N5CCN[C@H](C(=O)O)C5)cc4)n3)n2)n1 [Compound 488, (2S)-4-[4-[[4-[[2-(6-methyl-2-pyridyl)pyrimidin-4-yl]amino]pyrimidin-2-yl]amino]phenyl]piperazine-2-carboxylic acid] | 200 to 1260 nM |
| 0.0398 to 0.316 nM | Cc1cccc(-c2nccc(Nc3ccnc(Nc4ccc(N5CCSCC5)cc4)n3)n2)n1 [Compound 8, N4-[2-(6-methyl-2-pyridyl)pyrimidin-4-yl]-N2-(4-thiomorpholinophenyl) pyrimidine-2,4-diamine] | 25.1 to 158 nM |
| 0.0398 to 0.316 nM | Cc1cccc(-c2nccc(Nc3ccnc(Nc4ccc(N5CCN(CC(C)C)CC5)cc4)n3)n2)n1 [Compound 494, N2-[4-(4-isobutylpiperazin-1-yl)phenyl]-N4-[2-(6-methyl-2-pyridyl)pyrimidin-4-yl]pyrimidine-2,4-diamine] | 25.1 to 158 nM |
| 0.0398 to 0.316 nM | Cc1cccc(-c2nccc(Nc3ccnc(Nc4ccc(CN5CCNC(C)(C)C5)cc4)n3)n2)n1 [Compound 249, N2-[4-[(3,3-dimethylpiperazin-1-yl)methyl]phenyl]-N4-[2-(6-methyl-2-pyridyl)pyrimidin-4-yl]pyrimidine-2,4-diamine] | 25.1 to 158 nM |
| 0.0398 to 0.316 nM | Cc1cccc(-c2nccc(Nc3ccnc(Nc4ccc(CN5CCN(C(C)C)CC5)cc4)n3)n2)n1 [Compound 370, N2-[4-[(4-isopropylpiperazin-1-yl)methyl]phenyl]-N4-[2-(6-methyl-2-pyridyl)pyrimidin-4-yl]pyrimidine-2,4-diamine] | 25.1 to 158 nM |
| 0.0398 to 0.316 nM | Cc1cccc(-c2nccc(Nc3ccnc(Nc4ccc(NC(=O)N5C[C@@H](C)N[C@@H](C)C5)cc4)n3)n2)n1 [Compound 435, rac-(3S,5R)-3,5-dimethyl-N-[4-[[4-[[2-(6-methyl-2-pyridyl)pyrimidin-4-yl]amino]pyrimidin-2-yl]amino]phenyl]piperazine-1-carboxamide] | 25.1 to 158 nM |
